Results taken from BindingDB's records for doi:10.1016/j.ejmech.2018.10.063 (Saint Petersburg State University, 2019).

Test: Inhibition of Influenza A virus (A/Puerto Rico/8/34(H1N1)) PA endonuclease infected in MDCK cells assessed as reduction in virus titer treated with cells for 1 hr prior to viral infection for 1 hr followed by compound washout and subsequent compound addition measured after 48 hrs by hemagglutination test
For `Clc1ccc(N2CCN=C2c2ccc(C3=NCCN3c3ccc(Cl)cc3)cc2)cc1`, the IC50 was 5 µM.
Molecule `Fc1ccc(N2CCN=C2c2ccc(C3=NCCN3c3ccc(F)cc3)cc2)cc1` has an IC50 of 12 µM.
In the case of `C[C@@H](N)C12CC3CC(CC(C3)C1)C2` [(alpha-methyl-1-adamantyl)methylamine], the IC50 is reported as 11 µM.
`Fc1ccc(N2CCN=C2c2ccc(C3=NCCN3)cc2)cc1` gave an IC50 of 65 µM.
`c1cncc(N2CCN=C2c2ccc(C3=NCCN3c3cccnc3)cc2)c1` gave an IC50 of 68 µM.
`FC(F)(F)c1ccc(N2CCN=C2c2ccc(C3=NCCN3c3ccc(C(F)(F)F)cn3)cc2)nc1` showed an IC50 of 103 µM.
`c1ccc(N2CCN=C2c2ccc(C3=NCCN3c3ccccn3)cc2)nc1` gave an IC50 of 35 µM.
Molecule `COc1ccc(N2CCN=C2c2ccc(C3=NCCN3)cc2)cc1` has an IC50 of 44 µM.
Molecule `c1cnc(N2CCN=C2c2ccc(C3=NCCN3c3cnccn3)cc2)cn1` has an IC50 of over 809 µM.
`COc1ccc(N2CCN=C2c2ccc(C3=NCCN3c3ccc(OC)cc3)cc2)cc1` gave an IC50 of 16 µM.
Work on `c1ccc(N2CCN=C2c2ccc(C3=NCCN3c3ccccc3)cc2)cc1` yielded an IC50 of 77 µM.
`c1ccc(N2CCN=C2c2ccc(C3=NCCN3)cc2)cc1` gave an IC50 of 30 µM.
